In the supplement of paper PMC10307832:

Assays:
Experiment in all cases: relative viability (nuclei count vs DMSO), 5 days (fraction); higher = more cells survive
[1] = compound: CC(C)=CC[C@@H](O)C1=CC(=O)c2c(O)ccc(O)c2C1=O [Shikonin] + Cc1cc(Nc2cc(N3CCN(C)CC3)nc(Sc3ccc(NC(=O)C4CC4)cc3)n2)n[nH]1 [Tozasertib] (partner 0.1 µM)
Summary of the method: (§1)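 Lung cancer cell lines were pin-tool dosed in 1536-well plates on the day after seeding, with either a lone drug or a fixed anchor-drug dose plus five library-drug doses (not always all listed) in √10 steps. Nuclei were counted on 4× images after 5 days. Relative viability is the ratio of treated-well to vehicle-well nuclei counts, with each value a median of duplicate plates.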

[2] = compound: CC(C)N(CCCNC(=O)Nc1ccc(C(C)(C)C)cc1)C[C@H]1O[C@@H](n2ccc3c(N)ncnc32)[C@H](O)[C@@H]1O + CC1(C)CCC(c2ccc(Cl)cc2)=C(CN2CCN(c3ccc(C(=O)NS(=O)(=O)c4ccc(N[C@H](CCN5CCOCC5)CSc5ccccc5)c(S(=O)(=O)C(F)(F)F)c4)cc3)CC2)C1 [Navitoclax] (partner 0.5 µM)
Summary of the method: as §1

[3] = compound: CC(C)N(CCCNC(=O)Nc1ccc(C(C)(C)C)cc1)C[C@H]1O[C@@H](n2ccc3c(N)ncnc32)[C@H](O)[C@@H]1O + C[C@@H](Oc1cc(-c2cnn(C3CCNCC3)c2)cnc1N)c1c(Cl)ccc(F)c1Cl [Crizotinib] (partner 1 µM)
Summary of the method: as §1

[4] = compound: CC(C)N(CCCNC(=O)Nc1ccc(C(C)(C)C)cc1)C[C@H]1O[C@@H](n2ccc3c(N)ncnc32)[C@H](O)[C@@H]1O + Nc1nc2[nH]cc(CCc3ccc(C(=O)N[C@@H](CCC(=O)O)C(=O)O)cc3)c2c(=O)[nH]1 [Pemetrexed] (partner 0.2 µM)
Summary of the method: as §1

| Cell Line | relative viability ([1]; first compound 0.01 µM) | relative viability ([1]; first compound 0.1 µM) | relative viability ([1]; first compound 0.3162 µM) | relative viability ([1]; first compound 1 µM) | relative viability ([2]; first compound 0.08 µM) | relative viability ([2]; first compound 0.253 µM) | relative viability ([2]; first compound 0.8 µM) | relative viability ([2]; first compound 2.53 µM) | relative viability ([2]; first compound 8 µM) | relative viability ([3]; first compound 0.08 µM) | relative viability ([3]; first compound 0.253 µM) | relative viability ([3]; first compound 0.8 µM) | relative viability ([3]; first compound 2.53 µM) | relative viability ([3]; first compound 8 µM) | relative viability ([4]; first compound 0.08 µM) | relative viability ([4]; first compound 0.253 µM) | relative viability ([4]; first compound 0.8 µM) | relative viability ([4]; first compound 2.53 µM) | relative viability ([4]; first compound 8 µM) |
| --- | --- | --- | --- | --- | --- | --- | --- | --- | --- | --- | --- | --- | --- | --- | --- | --- | --- | --- | --- |
| NCI-H1734 | 0.288 | 0.284 | 0.302 | 0.161 | 0.784 | 0.86 | 0.71 | 0.856 | 0.752 | 0.644 | 0.656 | 0.728 | 0.649 | 0.605 | 0.397 | 0.417 | 0.431 | 0.417 | 0.412 |
| LXF-289 | 0.212 | 0.183 | 0.209 | 0.196 | 1 | 0.969 | 0.957 | 0.988 | 0.854 | 0.781 | 0.893 | 0.834 | 0.837 | 0.78 | 0.876 | 1 | 0.96 | 1.02 | 0.833 |
| H3255 | 0.804 | 0.535 | 0.64 | 0.797 | 0.518 | 0.555 | 0.545 | 0.367 | 0.551 | 0.763 | 0.76 | 0.959 | 0.717 | 0.735 | 0.569 | 0.538 | 0.61 | 0.562 | 0.548 |
| 201T | 0.99 | 1.14 | 0.968 | 0.935 | 1.21 | 1.21 | 1.24 | 1.21 | 1.25 | 1.01 | 1.01 | 1.09 | 1.03 | 1.04 | 0.334 | 0.368 | – | 0.304 | 0.351 |
| NCI-H2228 | 0.177 | 0.273 | 0.234 | 0.212 | 1.1 | – | 0.916 | 1.32 | 0.711 | 0.586 | – | 0.468 | 0.543 | 0.44 | 0.336 | 0.326 | 0.313 | 0.298 | 0.337 |
| HOP-62 | 0.369 | 0.407 | 0.369 | 0.38 | 0.89 | 1.07 | 0.846 | 0.929 | 1.03 | 0.926 | 0.982 | 0.882 | 0.748 | 0.915 | 0.323 | 0.433 | 0.39 | 0.31 | 0.356 |
